From US12065444B2, “Substituted tetrazolo[1,5-a]pyrazines and tetrazolo[1,5-c]pyrimidines as adenosine receptor antagonists” (Crossignal Therapeutics, Inc., priority 2021, dated 2024) come the findings set out here.

In test [1] the target is human adenosine A2a receptor (Homo sapiens, UniProt P29274). The experiment in a line: Adenosine A2a receptor whole cell cyclic AMP assay. The following applies: for inhibition at 10 µM: HEK293, 1 h, read-out: A2a @ 100 μM Adenosine (A2a cAMP IC50).
Test [2] concerns the target T1, human adenosine A2b receptor (Homo sapiens, UniProt P29275).
T1 sequence (P29275 1-332): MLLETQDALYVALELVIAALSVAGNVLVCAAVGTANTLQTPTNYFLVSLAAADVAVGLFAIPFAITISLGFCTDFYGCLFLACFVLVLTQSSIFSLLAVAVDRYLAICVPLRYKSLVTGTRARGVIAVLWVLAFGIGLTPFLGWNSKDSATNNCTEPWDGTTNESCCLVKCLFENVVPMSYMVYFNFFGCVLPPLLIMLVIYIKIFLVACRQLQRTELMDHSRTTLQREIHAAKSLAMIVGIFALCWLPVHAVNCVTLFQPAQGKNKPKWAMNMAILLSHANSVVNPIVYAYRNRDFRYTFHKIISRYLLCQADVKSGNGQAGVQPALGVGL
The experiment in a line: Adenosine A2b receptor whole cell cyclic AMP assay. The following applies: for inhibition at 10 µM: HEK293, 1 h, read-out: A2b @ 10 μM Adenosine (A2b cAMP IC50).

Where [3] appears, read: A2a @ 1 μM Adenosine (A2a cAMP IC50), HEK293 cells stably expressing human A2a, 1 μM adenosine, 1 hour compound treatment.
Setting [4] is: A2a @ 100 μM Adenosine (A2a cAMP IC50), HEK293 cells stably expressing human A2a, 100 μM adenosine, 1 hour compound treatment.

human adenosine A2a receptor, sequence (P29274 whole entry): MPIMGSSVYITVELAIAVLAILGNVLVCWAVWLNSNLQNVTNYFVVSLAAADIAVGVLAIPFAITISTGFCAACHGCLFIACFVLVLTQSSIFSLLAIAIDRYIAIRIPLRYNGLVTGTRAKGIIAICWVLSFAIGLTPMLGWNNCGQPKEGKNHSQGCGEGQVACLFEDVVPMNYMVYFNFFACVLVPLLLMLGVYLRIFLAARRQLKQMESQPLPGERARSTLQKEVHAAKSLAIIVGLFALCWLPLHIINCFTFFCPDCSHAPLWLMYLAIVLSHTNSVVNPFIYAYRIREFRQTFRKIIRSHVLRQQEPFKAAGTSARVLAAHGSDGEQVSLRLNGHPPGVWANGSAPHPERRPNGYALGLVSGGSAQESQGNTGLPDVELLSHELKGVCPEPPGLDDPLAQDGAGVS

As a reminder, the IC50 is the concentration at which inhibition is half-maximal. High values mean weaker potency in that assay, low ones greater potency in that assay. As for `COc1ccc(-c2nc(N)n3nnnc3c2-c2ccc3ncc(C)n3c2)cc1` [1-57, 7-(4-methoxyphenyl)-8-(3-methylimidazo[1,2-a]pyridin-6-yl)tetrazolo[1,5-c]pyrimidin-5-amine], the IC50 in test [1] (setting [3]) was 100 to 1000 nM; in test [1] (setting [4]) it was more than 1000 nM; in test [2] it was 100 to 1000 nM.

`Cc1ccc(-c2nc(N)nc3c2nnn3Cc2cccc(CO[C@H]3CCOC3)n2)o1` [CPI-444, reference compound]: in test [1] (HEK293 cells stably expressing human A2a, 100 μM adenosine, 1 hour compound treatment, 10 µM), the “A2a @ 100 μM Adenosine (A2a cAMP IC50)” value is on record as “NR (“NR” indicates A2a or A2b mean inhibition is <25% at the top concentration)”. Also, the inhibition at 10 µM in test [2] was less than 25%.

In test [1] (setting [3]), `Cc1ccnc2ccc(-c3c(-c4ccc(F)cc4)nc(N)c4nnnn34)cc12` [1-6, 6-(4-fluorophenyl)-5-(4-methylquinolin-6-yl)tetrazolo[1,5-a]pyrazin-8-amine] came in with an IC50 of less than 100 nM. For the same compound, the inhibition at 10 µM in test [2] is less than 25%.

Consider `Nc1nc(-c2ccc(F)cc2)c(-c2ccc3ncc(CO)n3c2)n2nnnc12` [1-20, (6-(8-amino-6-(4-fluorophenyl)tetrazolo[1,5-a]pyrazin-5-yl)imidazo[1,2-a]pyridin-3-yl)methanol], for which the results for the IC50 in test [1] (setting [3]), in test [1] (setting [4]) and in test [2] were less than 100 nM, more than 1000 nM and 100 to 1000 nM, respectively.

For `Cc1c(C#N)cccc1-c1cc(-c2cn(Cc3cccc(C(C)(C)O)n3)nn2)nc(N)n1` [AB928, reference compound], the results for the IC50 in test [1] (setting [3]), in test [1] (setting [4]) and in test [2] were 100 to 1000 nM, more than 1000 nM and more than 1000 nM, respectively.

Regarding `Cc1ccnc2ccc(-c3c(-c4ccc(F)cc4)nc(N)n4nnnc34)cc12` [1-36, 7-(4-fluorophenyl)-8-(4-methylquinolin-6-yl)tetrazolo[1,5-c]pyrimidin-5-amine], the IC50 in test [1] (setting [3]) was less than 100 nM; in test [2] it was 100 to 1000 nM.

As to `Cn1cnc2ccc(-c3c(-c4ccc(F)cc4)nc(N)c4nnnn34)cc21` [1-13, 6-(4-fluorophenyl)-5-(1-methyl-1H-benzo[d]imidazol-6-yl)tetrazolo[1,5-a]pyrazin-8-amine], the IC50 is less than 100 nM in test [1] (setting [3]), 100 to 1000 nM in test [1] (setting [4]) and 100 to 1000 nM in test [2].

In the case of `Cc1cnc2ccc(-c3c(-c4ccc(F)cc4)nc(N)c4nnnn34)cn12` [1-7, 6-(4-fluorophenyl)-5-(3-methylimidazo[1,2-a]pyridin-6-yl)tetrazolo[1,5-a]pyrazin-8-amine], the figures for the IC50 in test [1] (setting [3]), in test [1] (setting [4]) and in test [2] were less than 100 nM, 100 to 1000 nM and 100 to 1000 nM, respectively.

With `Nc1nc(-c2ccc(F)cc2)c(-c2ccc3ncc(C(F)F)n3c2)n2nnnc12` [1-48, 5-(3-(difluoromethyl)imidazo[1,2-a]pyridin-6-yl)-6-(4-fluorophenyl)tetrazolo[1,5-a]pyrazin-8-amine], the IC50 in test [1] (setting [3]), in test [1] (setting [4]) and in test [2] was 100 to 1000 nM in each case.

Turning to `COc1ccc(-c2nc(N)c3nnnn3c2-c2ccc3nccc(C)c3c2)cc1` [1-38, 6-(4-methoxyphenyl)-5-(4-methylquinolin-6-yl)tetrazolo[1,5-a]pyrazin-8-amine], the IC50 in test [1] (setting [3]) lay in the range of 100 to 1000 nM. In addition, in test [2], the inhibition at 10 µM is less than 25%.

As to `Nc1nc(-c2ccc(F)cc2)c(-c2cc(Cl)nc(C(F)(F)F)c2)c2nnnn12` [1-34, 8-(2-chloro-6-(trifluoromethyl)pyridin-4-yl)-7-(4-fluorophenyl)tetrazolo[1,5-c]pyrimidin-5-amine], the results for the IC50 in test [1] (setting [3]) and in test [1] (setting [4]) were 100 to 1000 nM and more than 1000 nM, respectively. The inhibition at 10 µM in test [2] is less than 25%.

With `Cc1cnc2ccc(-c3c(-c4ccc(F)cc4)nc(N)n4nnnc34)cn12` [1-25, 7-(4-fluorophenyl)-8-(3-methylimidazo[1,2-a]pyridin-6-yl)tetrazolo[1,5-c]pyrimidin-5-amine], the IC50 in test [1] (setting [3]) was less than 100 nM; in test [1] (setting [4]) it was 100 to 1000 nM; in test [2], 100 to 1000 nM.

In test [1] (setting [3]), `Nc1nc(-c2ccc(F)cc2)c(-c2ccc3nccc(Cl)c3c2)c2nnnn12` [1-35, 8-(4-chloroquinolin-6-yl)-7-(4-fluorophenyl)tetrazolo[1,5-c]pyrimidin-5-amine] yielded an IC50 of less than 100 nM.

`Nc1nc(-c2ccc(F)cc2)c(-c2cc(F)c3nccn3c2)n2nnnc12` [1-14, 5-(8-fluoroimidazo[1,2-a]pyridin-6-yl)-6-(4-fluorophenyl)tetrazolo[1,5-a]pyrazin-8-amine] yielded an IC50 in test [1] (setting [3]) of 100 to 1000 nM. Besides, the inhibition at 10 µM in test [1] was less than 25%.

As for `Cc1ccnc2ccc(-c3c(-c4ccc(F)cc4F)nc(N)c4nnnn34)cc12` [1-43, 6-(2,4-difluorophenyl)-5-(4-methylquinolin-6-yl)tetrazolo[1,5-a]pyrazin-8-amine], the IC50 in test [1] (setting [3]) was less than 100 nM. Besides, the inhibition at 10 µM in test [1] and in test [2] was less than 25% in each case.

`Cc1cnc2c(Cl)cc(-c3c(-c4ccc(F)cc4)nc(N)c4nnnn34)cn12` [1-24, 5-(8-chloro-3-methylimidazo[1,2-a]pyridin-6-yl)-6-(4-fluorophenyl)tetrazolo[1,5-a]pyrazin-8-amine]: the IC50 in test [1] (setting [3]) and in test [1] (setting [4]) was 100 to 1000 nM throughout.

As to `Cc1cn2cc(-c3c(-c4ccc(F)cc4)nc(N)c4nnnn34)cc(F)c2n1` [1-21, 5-(8-fluoro-2-methylimidazo[1,2-a]pyridin-6-yl)-6-(4-fluorophenyl)tetrazolo[1,5-a]pyrazin-8-amine], the IC50 in test [1] (setting [3]) was more than 1000 nM. In addition, the inhibition at 10 µM in test [1] is less than 25%.

In turn, `N#Cc1cc(-c2c(-c3ccc(F)cc3)nc(N)n3nnnc23)cc(Cl)n1` [1-41, 4-(5-amino-7-(4-fluorophenyl)tetrazolo[1,5-c]pyrimidin-8-yl)-6-chloropicolinonitrile] yielded an IC50 in test [1] (setting [3]) of 100 to 1000 nM.

In test [1] (setting [3]), `Cn1cnc2ccc(-c3c(-c4ccc(C#N)cc4)nc(N)n4nnnc34)cc21` [1-52, 4-(5-amino-8-(1-methyl-1H-benzo[d]imidazol-6-yl)tetrazolo[1,5-c]pyrimidin-7-yl)benzonitrile] returned an IC50 of 100 to 1000 nM.

`Nc1nc(-c2ccc(F)cc2)c(-c2ccc3ncsc3c2)n2nnnc12` [1-12, 5-(benzo[d]thiazol-6-yl)-6-(4-fluorophenyl)tetrazolo[1,5-a]pyrazin-8-amine] returned an IC50 in test [1] (setting [3]) of 100 to 1000 nM. In addition, the inhibition at 10 µM in test [1] was less than 25%.
